For orientation: IC50 means the concentration at which inhibition is half-maximal. What is called EC50 is the concentration at which the effect is half-maximal. Higher therefore signals lower potency in that assay.

Consider 9 molecules from US20110015162A1, “15,16-Methylene-17-hydroxy-19-nor-21-carboxylic acid-steroid Y-lactone derivative, use thereof and medicinal products containing the derivative” (Bayer Schering Pharma Aktiengesellschaft, priority 2007, published 2011).

Experiment [1] concerns the target T1, androgen receptor (Homo sapiens, UniProt P10275).
T1 sequence (P10275 1-920): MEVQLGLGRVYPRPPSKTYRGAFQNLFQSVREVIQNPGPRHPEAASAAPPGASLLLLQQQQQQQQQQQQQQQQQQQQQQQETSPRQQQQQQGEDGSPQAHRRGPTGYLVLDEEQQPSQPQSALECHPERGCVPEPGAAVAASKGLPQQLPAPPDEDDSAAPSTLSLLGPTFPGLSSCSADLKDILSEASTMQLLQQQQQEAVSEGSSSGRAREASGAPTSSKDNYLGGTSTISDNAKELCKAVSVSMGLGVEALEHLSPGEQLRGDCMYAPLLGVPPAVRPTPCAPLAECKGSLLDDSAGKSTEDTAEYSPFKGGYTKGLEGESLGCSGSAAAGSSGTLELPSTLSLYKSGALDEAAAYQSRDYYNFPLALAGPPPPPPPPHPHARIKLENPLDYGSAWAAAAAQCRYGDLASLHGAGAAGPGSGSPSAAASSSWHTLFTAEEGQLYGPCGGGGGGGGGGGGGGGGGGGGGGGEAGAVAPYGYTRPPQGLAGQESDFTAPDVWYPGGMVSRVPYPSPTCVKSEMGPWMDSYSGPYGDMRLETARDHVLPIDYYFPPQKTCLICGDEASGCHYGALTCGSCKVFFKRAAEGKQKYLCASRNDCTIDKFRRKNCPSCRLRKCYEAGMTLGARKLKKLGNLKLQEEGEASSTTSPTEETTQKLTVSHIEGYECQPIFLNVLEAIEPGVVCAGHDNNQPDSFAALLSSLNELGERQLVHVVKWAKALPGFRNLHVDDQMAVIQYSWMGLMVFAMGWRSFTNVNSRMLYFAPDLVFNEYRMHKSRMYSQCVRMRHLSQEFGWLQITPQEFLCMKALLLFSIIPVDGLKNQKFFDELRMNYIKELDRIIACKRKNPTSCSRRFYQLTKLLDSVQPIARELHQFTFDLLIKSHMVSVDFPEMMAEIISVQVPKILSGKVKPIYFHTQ
Kind of experiment: Androgen receptor binding test. On the set-up: expressed in transfected cells. The protocol: (§1) Using cytosol from progesterone receptor-expressing insect cells (Hi5), competitive binding to the progesterone receptor was determined from the ability to displace ^3H-progesterone as reference substance from the receptor.
3. Androgen Receptor Binding Test: […]

Experiment [2] concerns the target T1, androgen receptor. Kind of experiment: Androgen receptor binding test. Also noted: expressed in transfected cells. The following applies: reference substance 3H-testosterone.
Experiment [3] concerns the target T2, mineralocorticoid receptor (Homo sapiens, UniProt P08235).
T2 sequence (P08235 1-984): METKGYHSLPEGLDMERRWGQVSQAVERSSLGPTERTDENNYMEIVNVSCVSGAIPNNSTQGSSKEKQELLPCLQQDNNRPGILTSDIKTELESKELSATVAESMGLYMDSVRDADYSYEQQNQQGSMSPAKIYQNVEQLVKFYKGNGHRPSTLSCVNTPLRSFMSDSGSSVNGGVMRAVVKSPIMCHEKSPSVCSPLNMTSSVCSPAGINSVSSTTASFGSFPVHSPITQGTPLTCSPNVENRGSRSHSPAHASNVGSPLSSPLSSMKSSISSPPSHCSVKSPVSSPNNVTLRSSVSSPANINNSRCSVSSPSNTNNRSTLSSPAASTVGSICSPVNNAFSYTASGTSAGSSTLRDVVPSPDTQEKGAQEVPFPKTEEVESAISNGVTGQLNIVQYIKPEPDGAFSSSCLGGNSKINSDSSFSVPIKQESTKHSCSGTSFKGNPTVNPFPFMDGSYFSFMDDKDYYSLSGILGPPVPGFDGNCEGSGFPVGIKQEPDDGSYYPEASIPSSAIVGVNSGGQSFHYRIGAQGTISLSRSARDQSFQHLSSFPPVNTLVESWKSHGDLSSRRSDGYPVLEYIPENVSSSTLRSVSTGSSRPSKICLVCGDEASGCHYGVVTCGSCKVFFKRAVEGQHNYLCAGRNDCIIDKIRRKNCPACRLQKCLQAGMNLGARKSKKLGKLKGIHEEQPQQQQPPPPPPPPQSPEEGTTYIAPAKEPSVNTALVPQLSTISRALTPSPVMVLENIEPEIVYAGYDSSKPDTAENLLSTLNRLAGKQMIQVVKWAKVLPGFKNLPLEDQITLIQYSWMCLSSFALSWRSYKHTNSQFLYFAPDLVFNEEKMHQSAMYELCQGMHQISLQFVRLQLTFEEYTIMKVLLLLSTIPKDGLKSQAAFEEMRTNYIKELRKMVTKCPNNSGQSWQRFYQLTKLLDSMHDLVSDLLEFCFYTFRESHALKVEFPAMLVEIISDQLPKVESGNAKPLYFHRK
Kind of experiment: Mineralocorticoid receptor binding test. On the set-up: made in house; host or cells: Hi5 insect cells (cytosol). The following applies: reference substance 3H-aldosterone, cytosol from MR-expressing insect cells (Hi5). As to the method:
as §1
2. Mineralocorticoid Receptor Binding Test:
The test was carried out as in 1, with the following modifications: cytosol from mineralocorticoid receptor-expressing insect cells (Hi5) was used, and the reference substance was ^3H-aldosterone.

Experiment [4] addresses T1, androgen receptor. The experiment in a line: Androgenic/antiandrogenic action by transactivation test (PC3 reporter cells). On the set-up: expressed in transfected cells; host or cells: PC3 cells. The class given is cell-based. As to the method:
The test compounds were added eight hours later, and the cells were incubated with the compounds for 16 hours. The tests were carried out in triplicate. At the end of incubation the medium containing the effector was removed and replaced with lysis buffer. After luciferase assay substrate (Promega, #E1501) had been added, the 96-well plates were then put in a microplate luminometer (Pherastar, BMG Labtech), and the luminescence was measured. The IC50 values were evaluated using software for calculating dose-effect relations.
6. Determination of Androgenic/Antiandrogenic Action by Means of Transactivation Tests:
The androgenic/antiandrogenic action of the test substances was determined as for the transactivation tests described above.
The following modifications were made: In this case reporter cell lines were used (PC3 cells) that express the androgen receptor, and a reporter construct that contains luciferase under the control of a steroid hormone-responsive promoter.
For determination of the antiandrogenic efficacy, 0.05 nM R1881 was added to the cells, in order to achieve almost maximum stimulation of the reporter gene.

Where [5] appears, read: PC-3, read-out: Androgen receptor Agonism efficacy.
Setting [6] is: PC-3, read-out: Androgen receptor Antagonism efficacy.

Where two headings read alike, the source gives them in different places.

The molecule `CC[C@]12CC[C@H]3[C@@H]([C@H]4C[C@H]4C4=CC(=O)CC[C@@H]43)[C@@H]1[C@@H]1C[C@@H]1[C@@]21C=CC(=O)O1` [Example 1, 6β,7β;15β,16β-Bismethylene-17β-hydroxy-18-methyl-19-nor-17α-pregna-4,20(Z)-dien-3-one-21-carboxylic acid γ-lactone] yielded an IC50 in experiment [1] of 280 nM. Further, the “Androgen receptor Competition factor” value in experiment [2] is listed as 30.6. Besides, in experiment [3], the “Mineralocorticoid receptor (MR) Competition factor” value (“Mineralocorticoid receptor” below) came to 1.6. The molecule also showed an EC50 in experiment [4] of 100 nM. The figures for the Emax in experiment [4] (setting [5]) and in experiment [4] (setting [6]) were 46.3% and 5%, respectively.

In turn, `CC[C@]12CC[C@H]3[C@@H]([C@@H]4C[C@@H]4C4=CC(=O)CC[C@@H]43)[C@@H]1[C@@H]1C[C@@H]1[C@@]21C=CC(=O)O1` [Example 2, 6α,7α;15β,16β-Bismethylene-17β-hydroxy-18-methyl-19-nor-17α-pregna-4,20(Z)-dien-3-one-21-carboxylic acid γ-lactone] registered an IC50 in experiment [1] of 450 nM. Also, the “Androgen receptor Competition factor” value in experiment [2] is given as 49.6. In experiment [3], the “Mineralocorticoid receptor” value turned out to be 4.4. This molecule came in with an EC50 in experiment [4] of 130 nM. Moreover, the Emax in experiment [4] (setting [5]) is 32.6%; in experiment [4] (setting [6]), 5%.

In experiment [1], `CC[C@]12CC[C@H]3[C@@H](C=CC4=CC(=O)CC[C@@H]43)[C@@H]1[C@@H]1C[C@@H]1[C@@]21C=CC(=O)O1` [Example 3, 17β-Hydroxy-18-methyl-15β,16β-methylene-19-nor-17α-pregna-4,6,20(Z)-trien-3-one-21-carboxylic acid γ-lactone] gave an IC50 of 1300 nM. Besides, in experiment [2], the “Androgen receptor Competition factor” value turned out to be 62.9. Also, the “Mineralocorticoid receptor” value in experiment [3] amounted to 1.5. Besides, in experiment [4], the EC50 came out at 120 nM. Besides, the Emax in experiment [4] (setting [5]) is 25.4%; in experiment [4] (setting [6]), 5%.

Take `CC[C@]12CC[C@H]3[C@H]([C@@H]1[C@@H]1C[C@@H]1[C@@]21C=CC(=O)O1)[C@H](C)CC1=CC(=O)CC[C@@H]13` [Example 4A, 7α,18-Bismethyl-17β-hydroxy-15β,16β-methylene-19-nor-17α-pregna-4,20(Z)-dien-3-one-21-carboxylic acid γ-lactone]: the IC50 in experiment [1] was found to be 60 nM. The “Androgen receptor Competition factor” value in experiment [2] is given as 2.6. In experiment [3], the “Mineralocorticoid receptor” value is reported as 0.6. The molecule further came in with an EC50 in experiment [4] of 3 nM. The results for the Emax in experiment [4] (setting [5]) and in experiment [4] (setting [6]) were 97.5% and 5%, respectively.

In turn, `CC[C@@H]1CC2=CC(=O)CC[C@@H]2[C@H]2CC[C@@]3(CC)[C@@H]([C@@H]4C[C@@H]4[C@@]34C=CC(=O)O4)[C@H]12` [Example 5A, 17β-Hydroxy-7α-ethyl-18-methyl-15β,16β-methylene-19-nor-17α-pregna-4,20(Z)-dien-3-one-21-carboxylic acid γ-lactone] displayed an IC50 in experiment [1] of 110 nM. Moreover, the “Androgen receptor Competition factor” value in experiment [2] was determined as 4.1. Further, in experiment [3], the “Mineralocorticoid receptor” value is on record as 1.0. In addition, the response in experiment [4] was half-maximal at 8.3 nM (EC50). Also, the Emax in experiment [4] (setting [5]) is 73%; in experiment [4] (setting [6]) it was 5%.

`C=C[C@@H]1CC2=CC(=O)CC[C@@H]2[C@H]2CC[C@@]3(CC)[C@@H]([C@@H]4C[C@@H]4[C@@]34C=CC(=O)O4)[C@@H]21` [Example 6A, 17β-Hydroxy-7α-vinyl-18-methyl-15β,16β-methylene-19-nor-17α-pregna-4,20(Z)-dien-3-one-21-carboxylic acid γ-lactone] returned an IC50 in experiment [1] of 45 nM. Also, the “Androgen receptor Competition factor” value in experiment [2] was 1.7. Moreover, in experiment [3], the “Mineralocorticoid receptor” value turned out to be 1.5. Moreover, the EC50 in experiment [4] turned out to be 0.98 nM. Moreover, the Emax in experiment [4] (setting [5]) is 118%; in experiment [4] (setting [6]) it was 5%.

Take `CC[C@]12CC[C@H]3[C@@H](CCC4=CC(=O)CC[C@@H]43)[C@@H]1[C@@H]1C[C@@H]1[C@@]21C=CC(=O)O1` [Example 9, 17β-Hydroxy-18-methyl-15β,16β-methylene-19-nor-17α-pregna-4,20(Z) dien-3-one-21-carboxylic acid γ-lactone]: in experiment [2], the “Androgen receptor Competition factor” value stood at 5.6. Besides, the “Mineralocorticoid receptor” value in experiment [3] was 1.1. Besides, the midpoint of the response in experiment [4], the EC50, lay at 4.7 nM. Moreover, the Emax in experiment [4] (setting [5]) was 96.2%; in experiment [4] (setting [6]), 5%.

As to `C[C@]12CC[C@H]3[C@@H](C[C@@H](CO)C4=CC(=O)CC[C@@H]43)[C@@H]1[C@@H]1C[C@@H]1[C@@]21C=CC(=O)O1` [Example 21, 17β-Hydroxy-6β-hydroxymethylene-15β,16β-methylene-19-nor-17α-pregna-4,20(Z)-dien-3-one-21-carboxylic acid γ-lactone], the IC50 in experiment [1] (reference substance 3H-testosterone, cytosol from AR-expressing insect cells (Hi5), read-out: Androgen receptor IC50) turned out to be 1000 nM; in experiment [4], 500 nM. Further, the “Androgen receptor Competition factor” value in experiment [2] is 1000.0. Moreover, the results for the Emax in experiment [4] (setting [5]) and in experiment [4] (setting [6]) were 5% and 15.7%, respectively.

As for `C[C@]12CC[C@H]3[C@@H](CC4(CC4)C4=CC(=O)CC[C@@H]43)[C@@H]1[C@@H]1C[C@@H]1[C@@]21C=CC(=O)O1` [Example 22, 6,6-(1,2-Ethanediyl)-17β-hydroxy-15β,16β-methylene-19-nor-17α-pregna-4,20(Z)dien-3-one-21-carboxylic acid γ-lactone], in experiment [2], the “Androgen receptor Competition factor” value turned out to be 2.0. Besides, the “Mineralocorticoid receptor” value in experiment [3] is reported as 0.8. In experiment [4], the midpoint of the response, the EC50, lay at 1.7 nM. The Emax in experiment [4] (setting [5]) was 98.6%; in experiment [4] (setting [6]) it was 5%.
